Experimental data as given in patent US12275684B2, “Methods for making and using endoxifen” (Atossa Therapeutics, Inc., priority 2017, dated 2025).
Read-outs that look alike come from different tables or passages of the source.

Experiment: Placebo controlled, dose escalation pharmacokinetic study of oral (Z)-Endoxifen capsules (serum endoxifen; incl. accumulation ratios and dose linearity)
Format: in vivo, human
Design: Serum concentration, Maximum / Serum concentration, GeoMean / Serum concentration, Mean / Serum concentration, Median / terminal rate constant: unit not given here
Details: for Serum concentration, GeoMean / Serum concentration, Maximum / Serum concentration, Mean / Serum concentration, Median / Serum concentration, Minimum: 2 mg (n = 6)
Description: An objective of the study was to assess the safety and tolerability of oral (Z)-Endoxifen when administered […] orally as a capsule to healthy female volunteers. A secondary objective was to assess the pharmacokinetics of multiple doses of oral (Z)-Endoxifen in the subjects.
Generally, healthy female volunteers aged ≥18 years and ≤65 years were enrolled. 24 participants were enrolled in 3 cohorts and will be administered study drug orally. Three dose levels of orally administered (Z)-Endoxifen were investigated in 3 cohorts. In each cohort participants were randomized to receive an oral (Z)-Endoxifen or placebo in a blinded fashion. Enteric-resistant capsules used in the study were designed as delayed release capsules to resist rupture for at least 30 minutes, but typically, for about 2 hours, under gastric conditions and then open fully in intestinal fluid (DRCaps; Capsugel, a Lonza Company, USA). Enteric-resistant (Swedish Orange size Zero (0); Capsugel, USA) DRCaps capsules manually filled with 1, 2 or 4 mg of (Z)-endoxifen neat in compliance with GMP requirements were used. Placebo capsules contained microcrystalline cellulose an inert common capsule and tablet excipient.
Each cohort enrolled 8 participants, with 6 participants receiving (Z)-Endoxifen 1 mg capsules orally at 1 mg (Cohort 1), 2 mg (Cohort 2) or 4 mg (Cohort 3) doses and 2 participants receiving matching placebo capsules. In Cohort 1 (Dose Level=1 mg) two participants (sentinels) were dosed 24 hours prior to the remaining participants. One sentinel was dosed with (Z)-Endoxifen and the other with placebo. The remaining six participants in Cohort 1 were dosed as no safety concerns were identified in the sentinel participants. The non-sentinel participants in Cohort 1 were admitted to the clinical research facility at least one day later than the sentinels. There were no sentinels in Cohorts 2 and 3.
Participant engagement in this study was for a period of 56 days. These included a 28 day screening period, and a 7 day post treatment period for Pharmacokinetic (PK) sampling. There were two confinement periods, one at the beginning and one at the end of the dosing periods. Participants were confined to the clinical facility on Days-1 through to Day 2 and Days 21 and 22. If participants were to experience any clinically significant adverse events during the study, they would have been required to remain in the clinical facility for further observation at the discretion of the Principal Investigator (PI).
Healthy female volunteers were screened within 28 days prior to commencement of dosing. Participants were admitted to the clinical facility on Day-1 for up to 3 days. The first dose of (Z)-Endoxifen or placebo capsules was administered on Day 1. Following completion of all safety assessments and sampling for PK analyses, participants were discharged from the clinical facility on Day 2. The first dose on Day 1 was followed by a 6-day treatment free period (Days 2-7). Each participant returned to the clinical facility for PK blood draws and safety assessments during the treatment free period on study Days 4 and 6. On Day 8 participants commenced daily administration of (Z)-Endoxifen capsules or placebo capsules for 14 consecutive days (Days 8-21). Participants were supplied with study drug capsules and asked to self administer daily. Participants visited the clinical facility on Days 11, 14 and 17, prior to dose administration, for PK blood draws and safety assessments. On the morning of Day 21 each participant returned to the clinical facility prior to dose administration and were confined to the facility until Day 22 to allow for the collection of PK blood draws and safety assessments. The Day 21 dose was the last administration of study drug. Participants were discharged from the clinical facility on Day 22 and returned for PK blood draws and safety assessments on study Days 24, 26, and 28. […]

concentration at 10 h (1 mg, Day 1 Pre-dose, read-out: Serum concentration, GeoMean): 2.68 nM
concentration at 10 h (1 mg, Day 1 Pre-dose, read-out: Serum concentration, Max): 2.68 nM
concentration at 10 h (1 mg, Day 1 Pre-dose, read-out: Serum concentration, Mean): 2.68 nM
concentration at 10 h (1 mg, Day 1 Pre-dose, read-out: Serum concentration, Median): 2.68 nM
concentration at 10 h (1 mg, Day 1 Pre-dose, read-out: Serum concentration, Min): 2.68 nM
concentration at 10 h (1 mg, Day 8 Pre-dose, read-out: Serum concentration, GeoMean): 2.68 nM
concentration at 10 h (1 mg, Day 8 Pre-dose, read-out: Serum concentration, Max): 2.68 nM
concentration at 10 h (1 mg, Day 8 Pre-dose, read-out: Serum concentration, Mean): 2.68 nM
concentration at 10 h (1 mg, Day 8 Pre-dose, read-out: Serum concentration, Median): 2.68 nM
concentration at 10 h (1 mg, Day 8 Pre-dose, read-out: Serum concentration, Min): 2.68 nM
concentration at 10 h (1 mg, Day 11 Pre-Dose, read-out: Serum concentration, GeoMean): 37.7 nM
concentration at 10 h (1 mg, Day 11 Pre-Dose, read-out: Serum concentration, Max): 45.5 nM
concentration at 10 h (1 mg, Day 11 Pre-Dose, read-out: Serum concentration, Mean): 38.5 nM
concentration at 10 h (1 mg, Day 11 Pre-Dose, read-out: Serum concentration, Median): 42.8 nM
concentration at 10 h (1 mg, Day 11 Pre-Dose, read-out: Serum concentration, Min): 26.8 nM
concentration at 10 h (1 mg, Day 14 Pre-dose, read-out: Serum concentration, GeoMean): 37.6 nM
concentration at 10 h (1 mg, Day 14 Pre-dose, read-out: Serum concentration, Max): 75.0 nM
concentration at 10 h (1 mg, Day 14 Pre-dose, read-out: Serum concentration, Mean): 43.4 nM
concentration at 10 h (1 mg, Day 14 Pre-dose, read-out: Serum concentration, Median): 40.2 nM
concentration at 10 h (1 mg, Day 14 Pre-dose, read-out: Serum concentration, Min): 13.4 nM
concentration at 10 h (1 mg, Day 17 Pre-Dose, read-out: Serum concentration, GeoMean): 38.5 nM
concentration at 10 h (1 mg, Day 17 Pre-Dose, read-out: Serum concentration, Max): 64.2 nM
concentration at 10 h (1 mg, Day 17 Pre-Dose, read-out: Serum concentration, Mean): 43.4 nM
concentration at 10 h (1 mg, Day 17 Pre-Dose, read-out: Serum concentration, Median): 45.5 nM
concentration at 10 h (1 mg, Day 17 Pre-Dose, read-out: Serum concentration, Min): 13.4 nM
Serum concentration, GeoMean (Day 1 Pre-dose): 1.00
Serum concentration, Maximum (Day 1 Pre-dose): 1.00
Serum concentration, Mean (Day 1 Pre-dose): 0.17
Serum concentration, Median (Day 1 Pre-dose): 0.00
Serum concentration, Minimum (Day 1 Pre-dose): 0.00
Serum concentration, GeoMean (Day 4 Hr 72): 5.47
Serum concentration, Maximum (Day 4 Hr 72): 8.00
Serum concentration, Mean (Day 4 Hr 72): 5.67
Serum concentration, Median (Day 4 Hr 72): 5.50
Serum concentration, GeoMean (Day 6 Hr 120): 2.55
Serum concentration, Maximum (Day 6 Hr 120): 4.00
Serum concentration, Mean (Day 6 Hr 120): 2.80
Serum concentration, Median (Day 6 Hr 120): 3.00
Serum concentration, GeoMean (Day 8 Pre-dose): 1.00
Serum concentration, Maximum (Day 8 Pre-dose): 1.00
Serum concentration, Mean (Day 8 Pre-dose): 0.83
Serum concentration, Median (Day 8 Pre-dose): 1.00
Serum concentration, GeoMean (Day 11 Pre-Dose): 22.6
Serum concentration, Maximum (Day 11 Pre-Dose): 28.0
Serum concentration, Mean (Day 11 Pre-Dose): 22.8
Serum concentration, Median (Day 11 Pre-Dose): 22.5
Serum concentration, GeoMean (Day 14 Pre-dose): 28.9
Serum concentration, Maximum (Day 14 Pre-dose): 37.0
Serum concentration, Mean (Day 14 Pre-dose): 29.2
Serum concentration, Median (Day 14 Pre-dose): 28.5
Serum concentration, GeoMean (Day 17 Pre-Dose): 31.5
Serum concentration, Maximum (Day 17 Pre-Dose): 47.0
Serum concentration, Mean (Day 17 Pre-Dose): 32.2
Serum concentration, Median (Day 17 Pre-Dose): 29.5
Serum concentration, Maximum (Day 1 hr 0.5): 0.00
Serum concentration, Mean (Day 1 hr 0.5): 0.00
Serum concentration, Median (Day 1 hr 0.5): 0.00
Serum concentration, GeoMean (Day 1 hr 1): 2.35
Serum concentration, Maximum (Day 1 hr 1): 4.00
Serum concentration, Mean (Day 1 hr 1): 2.17
Serum concentration, Median (Day 1 hr 1): 2.50
Serum concentration, GeoMean (Day 1 hr 2): 9.55
Serum concentration, Maximum (Day 1 hr 2): 16.0
Serum concentration, Mean (Day 1 hr 2): 10.2
Serum concentration, Median (Day 1 hr 2): 10.0
Serum concentration, GeoMean (Day 1 hr 3): 14.3
Serum concentration, Maximum (Day 1 hr 3): 17.0
Serum concentration, Mean (Day 1 hr 3): 14.5
Serum concentration, Median (Day 1 hr 3): 14.5
Serum concentration, GeoMean (Day 1 hr 4): 16.6
Serum concentration, Maximum (Day 1 hr 4): 22.0
Serum concentration, Mean (Day 1 hr 4): 17.2
Serum concentration, Median (Day 1 hr 4): 17.5
Serum concentration, GeoMean (Day 1 hr 5): 16.8
Serum concentration, Maximum (Day 1 hr 5): 22.0
Serum concentration, Mean (Day 1 hr 5): 17.2
Serum concentration, Median (Day 1 hr 5): 17.0
Serum concentration, GeoMean (Day 1 hr 8): 13.8
Serum concentration, Maximum (Day 1 hr 8): 19.0
Serum concentration, Mean (Day 1 hr 8): 14.3
Serum concentration, Median (Day 1 hr 8): 14.5
Serum concentration, GeoMean (Day 1 hr 10): 14.2
Serum concentration, Maximum (Day 1 hr 10): 19.0
Serum concentration, Mean (Day 1 hr 10): 14.5
Serum concentration, Median (Day 1 hr 10): 14.5
Serum concentration, GeoMean (Day 1 hr 12): 14.1
Serum concentration, Maximum (Day 1 hr 12): 18.0
Serum concentration, Mean (Day 1 hr 12): 14.2
Serum concentration, Median (Day 1 hr 12): 14.0
Serum concentration, Minimum (Day 1 hr 12): 12.0
Serum concentration, GeoMean (Day 1 hr 24): 10.1
Serum concentration, Maximum (Day 1 hr 24): 13.0
Serum concentration, Mean (Day 1 hr 24): 10.3
Serum concentration, Median (Day 1 hr 24): 10.5
AUC0-inf, Max (Day 1, 1 mg, N = 5): 739 ng·h/mL
AUC0-inf, Min (Day 1, 1 mg, N = 5): 441 ng·h/mL
AUC24hr, Max (Day 1, 1 mg, N = 5): 183 ng·h/mL
AUC24hr, Min (Day 1, 1 mg, N = 5): 102 ng·h/mL
AUCTlast, Max (Day 1, 1 mg, N = 5): 582 ng·h/mL
AUCTlast, Min (Day 1, 1 mg, N = 5): 367 ng·h/mL
CL/F, GeoMean (Day 1, 1 mg, N = 5): 1.79 L/h
CL/F, Max (Day 1, 1 mg, N = 5): 2.27 L/h
CL/F, Mean (Day 1, 1 mg, N = 5): 1.82 L/h
CL/F, Median (Day 1, 1 mg, N = 5): 1.87 L/h
Structure (SMILES): CC/C(=C(\c1ccc(O)cc1)c1ccc(OCCNC)cc1)c1ccccc1 [(Z)-Endoxifen, (Z)-4-(1-(4-(2-(methylamino)ethoxy)phenyl)-2-phenylbut-1-enyl) phenol]
